Data reported in publication PMC4490784, “Compensatory induction of MYC expression by sustained CDK9 inhibition via a BRD4-dependent mechanism” (eLife, 2015).

Experiments:
Experiment in all cases: KINOMEscan binding assay
CSF1R = molecular target: T1, CSF1R (Homo sapiens, UniProt P07333); details: read-out: % Retention on Solid Support
T1 construct: purchased DiscoveRx KINOMEscan
Outline: (§1)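 Binding, not catalytic activity, is measured: the compound competes with an active-site-directed ligand. Screening concentrations were 1 and 10 µM, applied across more than 400 kinases.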

OSR1 = molecular target: T2, OSR1 (Homo sapiens, UniProt O95747); details: read-out: % Retention on Solid Support
T2 construct: purchased DiscoveRx KINOMEscan
Outline: as §1

ACVRL1 = molecular target: T3, ACVRL1 (Homo sapiens, UniProt P37023); details: read-out: % Retention on Solid Support
T3 construct: purchased DiscoveRx KINOMEscan
Outline: as §1

FGFR3(G697C) = molecular target: T4, FGFR3(G697C) (Homo sapiens, UniProt P22607, G697C); details: read-out: % Retention on Solid Support
T4 construct: purchased DiscoveRx KINOMEscan
Outline: as §1

NDR2 = molecular target: T5, NDR2 (Homo sapiens, UniProt Q9Y2H1); details: read-out: % Retention on Solid Support
T5 construct: purchased DiscoveRx KINOMEscan
Outline: as §1

ERBB4 = molecular target: T6, ERBB4 (Homo sapiens, UniProt Q15303); details: read-out: % Retention on Solid Support
T6 construct: purchased DiscoveRx KINOMEscan
Outline: as §1

RIPK4 = molecular target: T7, RIPK4 (Homo sapiens, UniProt P57078); details: read-out: % Retention on Solid Support
T7 construct: purchased DiscoveRx KINOMEscan
Outline: as §1

MLK3 = molecular target: T8, MLK3 (Homo sapiens, UniProt Q16584)
T8 construct: purchased DiscoveRx KINOMEscan
Outline: as §1

SYK = molecular target: T9, SYK (Homo sapiens, UniProt P43405)
T9 construct: purchased DiscoveRx KINOMEscan
Outline: as §1

FAK = molecular target: T10, FAK (Homo sapiens, UniProt Q05397); details: read-out: % Retention on Solid Support
T10 construct: purchased DiscoveRx KINOMEscan
Outline: as §1

CDC2L1 = molecular target: T11, CDC2L1 (Homo sapiens, UniProt P21127); details: read-out: % Retention on Solid Support
T11 construct: purchased DiscoveRx KINOMEscan
Outline: as §1

ACVR1 = molecular target: T12, ACVR1 (Homo sapiens, UniProt Q04771); details: read-out: % Retention on Solid Support
T12 construct: purchased DiscoveRx KINOMEscan
Outline: as §1

TXK = molecular target: T13, TXK (Homo sapiens, UniProt P42681); details: read-out: % Retention on Solid Support
T13 construct: purchased DiscoveRx KINOMEscan
Outline: as §1

LIMK1 = molecular target: T14, LIMK1 (Homo sapiens, UniProt P53667); details: read-out: % Retention on Solid Support
T14 construct: purchased DiscoveRx KINOMEscan
Outline: as §1

FER = molecular target: T15, FER (Homo sapiens, UniProt P16591); details: read-out: % Retention on Solid Support
T15 construct: purchased DiscoveRx KINOMEscan
Outline: as §1

[1] = molecular target: T16, JAK3(JH1domain-catalytic) (Homo sapiens, UniProt P52333); details: read-out: % Retention on Solid Support
T16 construct: JAK3(JH1domain-catalytic); purchased DiscoveRx KINOMEscan
Outline: as §1

MELK = molecular target: T17, MELK (Homo sapiens, UniProt Q14680); details: read-out: % Retention on Solid Support
T17 construct: purchased DiscoveRx KINOMEscan
Outline: as §1

MYLK = molecular target: T18, MYLK (Homo sapiens, UniProt Q15746); details: read-out: % Retention on Solid Support
T18 construct: purchased DiscoveRx KINOMEscan
Outline: as §1

LKB1 = molecular target: T19, LKB1 (Homo sapiens, UniProt Q15831); details: read-out: % Retention on Solid Support
T19 construct: purchased DiscoveRx KINOMEscan
Outline: as §1

DMPK2 = molecular target: T20, DMPK2 (Homo sapiens, UniProt Q6DT37); details: read-out: % Retention on Solid Support
T20 construct: purchased DiscoveRx KINOMEscan
Outline: as §1

SLK = molecular target: T21, SLK (Homo sapiens, UniProt Q9H2G2); details: read-out: % Retention on Solid Support
T21 construct: purchased DiscoveRx KINOMEscan
Outline: as §1

PIK3CD = molecular target: T22, PIK3CD (Homo sapiens, UniProt O00329); details: read-out: % Retention on Solid Support
T22 construct: purchased DiscoveRx KINOMEscan
Outline: as §1

CAMK2A = molecular target: T23, CAMK2A (Homo sapiens, UniProt Q9UQM7); details: read-out: % Retention on Solid Support
T23 construct: purchased DiscoveRx KINOMEscan
Outline: as §1

PIK3C2G = molecular target: T24, PIK3C2G (Homo sapiens, UniProt O75747); details: read-out: % Retention on Solid Support
T24 construct: purchased DiscoveRx KINOMEscan
Outline: as §1

[2] = molecular target: T25, RSK2(Kin.Dom.1-N-terminal) (Homo sapiens, UniProt P51812); details: read-out: % Retention on Solid Support
T25 construct: RSK2(Kin.Dom.1-N-terminal); purchased DiscoveRx KINOMEscan
Outline: as §1

MET(Y1235D) = molecular target: T26, MET(Y1235D) (Homo sapiens, UniProt P08581, Y1235D)
T26 construct: purchased DiscoveRx KINOMEscan
Outline: as §1

[3] = molecular target: T27, RPS6KA4(Kin.Dom.1-N-terminal) (Homo sapiens, UniProt O75676); details: read-out: % Retention on Solid Support
T27 construct: RPS6KA4(Kin.Dom.1-N-terminal); purchased DiscoveRx KINOMEscan
Outline: as §1

PRKX = molecular target: T28, PRKX (Homo sapiens, UniProt P51817); details: read-out: % Retention on Solid Support
T28 construct: purchased DiscoveRx KINOMEscan
Outline: as §1

T10 sequence (Q05397 whole entry): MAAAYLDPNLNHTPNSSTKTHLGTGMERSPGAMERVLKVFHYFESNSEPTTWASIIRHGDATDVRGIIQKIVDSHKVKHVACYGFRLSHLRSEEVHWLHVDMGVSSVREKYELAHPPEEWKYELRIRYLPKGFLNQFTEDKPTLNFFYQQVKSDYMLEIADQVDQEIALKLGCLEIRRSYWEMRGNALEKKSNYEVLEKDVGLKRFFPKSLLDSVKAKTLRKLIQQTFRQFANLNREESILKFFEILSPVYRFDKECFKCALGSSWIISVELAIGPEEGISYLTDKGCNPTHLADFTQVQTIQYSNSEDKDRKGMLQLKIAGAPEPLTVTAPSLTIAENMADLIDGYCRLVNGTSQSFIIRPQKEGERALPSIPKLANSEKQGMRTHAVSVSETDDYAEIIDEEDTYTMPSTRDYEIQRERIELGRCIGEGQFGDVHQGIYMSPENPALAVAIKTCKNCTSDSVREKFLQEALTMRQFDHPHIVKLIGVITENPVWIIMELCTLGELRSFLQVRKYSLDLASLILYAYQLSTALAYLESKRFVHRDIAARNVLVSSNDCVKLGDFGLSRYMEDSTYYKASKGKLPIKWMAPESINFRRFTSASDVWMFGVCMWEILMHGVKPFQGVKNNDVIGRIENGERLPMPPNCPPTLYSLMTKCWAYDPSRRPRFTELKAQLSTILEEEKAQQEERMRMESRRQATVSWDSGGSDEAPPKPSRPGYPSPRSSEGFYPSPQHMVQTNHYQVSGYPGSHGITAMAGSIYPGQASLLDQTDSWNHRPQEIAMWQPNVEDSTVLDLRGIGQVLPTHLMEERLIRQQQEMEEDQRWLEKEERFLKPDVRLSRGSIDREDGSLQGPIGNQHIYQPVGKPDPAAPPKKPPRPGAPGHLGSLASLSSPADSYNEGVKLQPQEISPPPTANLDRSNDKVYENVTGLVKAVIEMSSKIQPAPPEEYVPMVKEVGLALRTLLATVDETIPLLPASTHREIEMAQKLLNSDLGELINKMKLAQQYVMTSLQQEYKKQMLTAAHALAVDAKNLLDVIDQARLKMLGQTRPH
T5 sequence (Q9Y2H1 whole entry): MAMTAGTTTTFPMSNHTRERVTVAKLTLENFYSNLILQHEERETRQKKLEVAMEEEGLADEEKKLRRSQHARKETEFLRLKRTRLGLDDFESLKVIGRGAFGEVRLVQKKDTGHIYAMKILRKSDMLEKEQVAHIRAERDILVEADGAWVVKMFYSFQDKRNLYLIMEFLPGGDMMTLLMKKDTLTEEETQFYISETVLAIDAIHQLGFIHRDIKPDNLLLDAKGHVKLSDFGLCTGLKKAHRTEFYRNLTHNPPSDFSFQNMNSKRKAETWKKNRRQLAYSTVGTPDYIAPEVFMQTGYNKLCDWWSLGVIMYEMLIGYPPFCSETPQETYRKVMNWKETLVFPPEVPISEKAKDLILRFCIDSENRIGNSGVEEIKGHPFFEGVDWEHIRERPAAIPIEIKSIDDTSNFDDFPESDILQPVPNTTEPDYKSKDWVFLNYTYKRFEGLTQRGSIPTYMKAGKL
T3 sequence (P37023 22-503): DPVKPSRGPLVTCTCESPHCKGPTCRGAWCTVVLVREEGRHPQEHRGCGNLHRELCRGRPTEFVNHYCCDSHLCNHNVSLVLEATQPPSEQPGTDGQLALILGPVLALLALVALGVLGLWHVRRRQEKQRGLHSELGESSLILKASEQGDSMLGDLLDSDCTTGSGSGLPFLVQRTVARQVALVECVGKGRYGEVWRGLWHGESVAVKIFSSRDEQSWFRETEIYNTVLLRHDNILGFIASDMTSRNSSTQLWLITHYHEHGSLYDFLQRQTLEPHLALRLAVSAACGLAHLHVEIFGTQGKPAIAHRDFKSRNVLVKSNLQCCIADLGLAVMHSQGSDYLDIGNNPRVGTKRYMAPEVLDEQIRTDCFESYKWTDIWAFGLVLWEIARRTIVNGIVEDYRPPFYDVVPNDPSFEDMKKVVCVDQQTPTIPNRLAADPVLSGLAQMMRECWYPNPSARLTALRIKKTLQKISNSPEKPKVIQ
T12 sequence (Q04771 21-509): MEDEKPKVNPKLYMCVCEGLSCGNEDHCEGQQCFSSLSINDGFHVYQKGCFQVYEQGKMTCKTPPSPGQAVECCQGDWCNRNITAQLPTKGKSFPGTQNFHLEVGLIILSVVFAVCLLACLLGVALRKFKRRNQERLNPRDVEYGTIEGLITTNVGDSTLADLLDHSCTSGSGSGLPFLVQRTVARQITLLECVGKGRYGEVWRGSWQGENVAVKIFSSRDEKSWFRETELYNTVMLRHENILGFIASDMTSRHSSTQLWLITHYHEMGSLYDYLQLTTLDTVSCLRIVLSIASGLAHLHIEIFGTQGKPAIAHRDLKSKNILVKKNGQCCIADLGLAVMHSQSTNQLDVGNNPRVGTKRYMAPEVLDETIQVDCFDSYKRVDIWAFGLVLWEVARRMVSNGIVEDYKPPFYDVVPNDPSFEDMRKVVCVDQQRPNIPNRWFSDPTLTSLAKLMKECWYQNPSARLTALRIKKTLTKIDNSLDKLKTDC
T11 sequence (P21127 whole entry): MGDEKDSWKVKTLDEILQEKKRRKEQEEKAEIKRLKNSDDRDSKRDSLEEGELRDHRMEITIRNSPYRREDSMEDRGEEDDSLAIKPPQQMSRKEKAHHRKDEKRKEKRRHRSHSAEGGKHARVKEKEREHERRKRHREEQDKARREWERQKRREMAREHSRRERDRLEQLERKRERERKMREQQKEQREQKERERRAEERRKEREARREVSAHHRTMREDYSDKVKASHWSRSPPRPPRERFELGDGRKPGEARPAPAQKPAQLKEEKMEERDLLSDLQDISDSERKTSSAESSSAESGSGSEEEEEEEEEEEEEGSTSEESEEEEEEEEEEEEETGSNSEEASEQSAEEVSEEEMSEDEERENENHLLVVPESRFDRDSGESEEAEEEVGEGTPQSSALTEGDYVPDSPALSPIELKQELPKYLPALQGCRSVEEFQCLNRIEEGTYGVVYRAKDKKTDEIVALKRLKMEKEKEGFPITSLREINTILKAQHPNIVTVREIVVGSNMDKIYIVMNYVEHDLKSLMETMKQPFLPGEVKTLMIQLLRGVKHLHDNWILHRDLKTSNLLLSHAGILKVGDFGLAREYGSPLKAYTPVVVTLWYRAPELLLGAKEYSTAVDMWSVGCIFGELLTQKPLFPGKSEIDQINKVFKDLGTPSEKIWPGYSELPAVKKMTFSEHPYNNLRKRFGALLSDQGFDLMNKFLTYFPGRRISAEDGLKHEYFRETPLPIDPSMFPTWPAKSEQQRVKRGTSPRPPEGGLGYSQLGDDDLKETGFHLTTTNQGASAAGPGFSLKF
T27 sequence (O75676 1-371 limits assumed): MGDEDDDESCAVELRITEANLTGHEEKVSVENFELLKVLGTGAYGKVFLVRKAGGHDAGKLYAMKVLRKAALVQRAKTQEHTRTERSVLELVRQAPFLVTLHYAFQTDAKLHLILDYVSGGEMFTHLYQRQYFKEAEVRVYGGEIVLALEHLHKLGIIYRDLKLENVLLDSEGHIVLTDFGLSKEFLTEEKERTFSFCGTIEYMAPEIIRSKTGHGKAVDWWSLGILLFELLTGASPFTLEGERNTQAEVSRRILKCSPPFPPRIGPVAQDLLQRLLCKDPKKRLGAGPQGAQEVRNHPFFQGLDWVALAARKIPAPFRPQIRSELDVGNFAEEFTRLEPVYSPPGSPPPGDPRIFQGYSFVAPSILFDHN
T23 sequence (Q9UQM7 whole entry): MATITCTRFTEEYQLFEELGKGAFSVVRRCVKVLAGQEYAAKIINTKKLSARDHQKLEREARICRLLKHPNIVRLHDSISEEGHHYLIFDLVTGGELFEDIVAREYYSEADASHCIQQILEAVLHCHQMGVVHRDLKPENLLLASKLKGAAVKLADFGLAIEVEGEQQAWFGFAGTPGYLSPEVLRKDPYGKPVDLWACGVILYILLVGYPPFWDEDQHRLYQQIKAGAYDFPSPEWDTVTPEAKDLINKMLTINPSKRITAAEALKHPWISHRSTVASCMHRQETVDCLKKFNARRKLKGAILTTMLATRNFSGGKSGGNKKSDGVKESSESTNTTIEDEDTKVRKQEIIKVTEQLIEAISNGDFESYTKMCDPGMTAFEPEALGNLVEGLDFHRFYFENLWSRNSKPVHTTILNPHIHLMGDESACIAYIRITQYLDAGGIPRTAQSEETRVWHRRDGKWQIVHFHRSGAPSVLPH
T7 sequence (P57078 whole entry): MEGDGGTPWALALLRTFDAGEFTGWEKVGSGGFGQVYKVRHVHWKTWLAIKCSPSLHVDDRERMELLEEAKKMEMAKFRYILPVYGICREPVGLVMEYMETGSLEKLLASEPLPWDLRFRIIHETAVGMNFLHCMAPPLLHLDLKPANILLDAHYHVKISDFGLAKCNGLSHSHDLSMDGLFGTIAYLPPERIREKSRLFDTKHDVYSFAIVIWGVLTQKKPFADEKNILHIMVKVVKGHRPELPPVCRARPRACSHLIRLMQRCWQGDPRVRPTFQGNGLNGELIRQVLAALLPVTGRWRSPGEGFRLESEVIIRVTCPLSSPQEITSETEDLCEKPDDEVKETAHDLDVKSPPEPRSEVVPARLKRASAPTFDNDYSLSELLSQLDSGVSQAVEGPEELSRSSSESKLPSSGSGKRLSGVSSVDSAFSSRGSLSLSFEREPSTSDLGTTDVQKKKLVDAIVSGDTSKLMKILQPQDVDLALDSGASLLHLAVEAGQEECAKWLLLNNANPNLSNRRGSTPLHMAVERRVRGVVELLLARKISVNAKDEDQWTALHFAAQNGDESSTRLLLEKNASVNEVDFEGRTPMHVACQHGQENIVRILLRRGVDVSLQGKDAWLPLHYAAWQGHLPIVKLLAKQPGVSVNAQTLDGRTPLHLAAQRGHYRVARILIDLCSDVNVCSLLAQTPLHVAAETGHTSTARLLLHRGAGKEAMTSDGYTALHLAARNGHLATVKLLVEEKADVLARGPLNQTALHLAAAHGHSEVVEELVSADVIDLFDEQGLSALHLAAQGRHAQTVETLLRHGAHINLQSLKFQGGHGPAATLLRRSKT

N[C@H]1CC[C@H](Nc2cc(-c3cccc(NCc4cccc(F)c4)n3)c(Cl)cn2)CC1 [i-CDK9, N2′-(trans-4-aminocyclohexyl)-5′-chloro-N6-(3-fluorobenzyl)-2,4′-bipyridine-2′,6-diamine]
remaining binding at 1 µM (CSF1R; 1 µM i-CDK9): 59%
remaining binding at 10 µM (CSF1R; 10 µM i-CDK9): 100%
remaining binding at 1 µM (OSR1; 1 µM i-CDK9): 97%
remaining binding at 10 µM (OSR1; 10 µM i-CDK9): 85%
remaining binding at 1 µM (ACVRL1; 1 µM i-CDK9): 95%
remaining binding at 10 µM (ACVRL1; 10 µM i-CDK9): 100%
remaining binding at 1 µM (FGFR3(G697C); 1 µM i-CDK9): 96%
remaining binding at 10 µM (FGFR3(G697C); 10 µM i-CDK9): 100%
remaining binding at 1 µM (NDR2; 1 µM i-CDK9): 95%
remaining binding at 10 µM (NDR2; 10 µM i-CDK9): 100%
remaining binding at 1 µM (ERBB4; 1 µM i-CDK9): 100%
remaining binding at 10 µM (ERBB4; 10 µM i-CDK9): 100%
remaining binding at 1 µM (RIPK4; 1 µM i-CDK9): 53%
remaining binding at 10 µM (RIPK4; 10 µM i-CDK9): 100%
% Retention on Solid Support (MLK3; 1 µM i-CDK9): 85%
% Retention on Solid Support (MLK3; 10 µM i-CDK9): 100%
% Retention on Solid Support (SYK; 1 µM i-CDK9): 86%
% Retention on Solid Support (SYK; 10 µM i-CDK9): 100%
remaining binding at 1 µM (FAK; 1 µM i-CDK9): 88%
remaining binding at 10 µM (FAK; 10 µM i-CDK9): 99%
remaining binding at 1 µM (CDC2L1; 1 µM i-CDK9): 92%
remaining binding at 10 µM (CDC2L1; 10 µM i-CDK9): 36%
remaining binding at 1 µM (ACVR1; 1 µM i-CDK9): 100%
remaining binding at 10 µM (ACVR1; 10 µM i-CDK9): 100%
remaining binding at 1 µM (TXK; 1 µM i-CDK9): 100%
remaining binding at 10 µM (TXK; 10 µM i-CDK9): 100%
remaining binding at 1 µM (LIMK1; 1 µM i-CDK9): 90%
remaining binding at 10 µM (LIMK1; 10 µM i-CDK9): 100%
remaining binding at 1 µM (FER; 1 µM i-CDK9): 56%
remaining binding at 10 µM (FER; 10 µM i-CDK9): 100%
remaining binding at 1 µM ([1]; 1 µM i-CDK9): 100%
remaining binding at 10 µM ([1]; 10 µM i-CDK9): 100%
remaining binding at 1 µM (MELK; 1 µM i-CDK9): 100%
remaining binding at 10 µM (MELK; 10 µM i-CDK9): 95%
remaining binding at 1 µM (MYLK; 1 µM i-CDK9): 100%
remaining binding at 10 µM (MYLK; 10 µM i-CDK9): 100%
remaining binding at 1 µM (LKB1; 1 µM i-CDK9): 93%
remaining binding at 10 µM (LKB1; 10 µM i-CDK9): 96%
remaining binding at 1 µM (DMPK2; 1 µM i-CDK9): 100%
remaining binding at 10 µM (DMPK2; 10 µM i-CDK9): 100%
remaining binding at 1 µM (SLK; 1 µM i-CDK9): 100%
remaining binding at 10 µM (SLK; 10 µM i-CDK9): 100%
remaining binding at 1 µM (PIK3CD; 1 µM i-CDK9): 100%
remaining binding at 10 µM (PIK3CD; 10 µM i-CDK9): 100%
remaining binding at 1 µM (CAMK2A; 1 µM i-CDK9): 91%
remaining binding at 10 µM (CAMK2A; 10 µM i-CDK9): 81%
remaining binding at 1 µM (PIK3C2G; 1 µM i-CDK9): 100%
remaining binding at 10 µM (PIK3C2G; 10 µM i-CDK9): 99%
remaining binding at 1 µM ([2]; 1 µM i-CDK9): 86%
remaining binding at 10 µM ([2]; 10 µM i-CDK9): 76%
% Retention on Solid Support (MET(Y1235D); 1 µM i-CDK9): 100%
% Retention on Solid Support (MET(Y1235D); 10 µM i-CDK9): 11%
remaining binding at 1 µM ([3]; 1 µM i-CDK9): 48%
remaining binding at 10 µM ([3]; 10 µM i-CDK9): 84%
remaining binding at 1 µM (PRKX; 1 µM i-CDK9): 100%
remaining binding at 10 µM (PRKX; 10 µM i-CDK9): 90%
